Results reported in patent US12433900B2, “Intravitreal corticosteroid extended release implant and methods of use” (Eyedea Bio, LLC, priority 2021, dated 2025).

assay: Calculated Octanol Solubility Index (OSI) and Topological Polar Surface Area (TPSA) of the API; conditions: calculated using the log P and maximal aqueous solubility

OSI (Octanol Solubility Index)	SMILES
3.71	C[C@@H]1C[C@H]2[C@@H]3CCC4=CC(=O)C=C[C@]4(C)[C@@]3(F)[C@@H](O)C[C@]2(C)[C@@]1(O)C(=O)COP(=O)(O)O [dexamethasone phosphate]
3.48	CC1(C)O[C@@H]2C[C@H]3[C@@H]4C[C@H](F)C5=CC(=O)C=C[C@]5(C)[C@@]4(F)[C@@H](O)C[C@]3(C)[C@]2(C(=O)CO)O1 [fluocinolone acetonide, 6α,9α-difluoro-11β,16α,17α,21-tetrahydroxypregna-1,4-diene-3,20-dione cyclic 16α,17α-acetal with acetone]
3.85	C[C@@H]1C[C@H]2[C@@H]3CCC4=CC(=O)C=C[C@]4(C)[C@@]3(F)[C@@H](O)C[C@]2(C)[C@@]1(O)C(=O)CO [dexamethasone free base, 9α-fluoro-11β,17α,21-trihydroxy-16α-methylpregna-1,4-diene-3,20-dione]
